Values joined by “and” are separate entries in the source; they are usually repeats but may differ in a detail not shown here. Equal values may be shown once.
How the values were obtained:
postmenopausal women = settings: unpublished data; cited from earlier work
alopecia in men = settings: cited from earlier work
[1] = Toxicity and side effects of melatonin in humans (oral, topical); assay type: in vivo, human; settings: topical application in a nanocolloid preparation and alcoholic solutions, over 60 subjects
Description: Although the mechanisms of the action of melatonin are still not comprehensively clarified in detail, melatonin appears to control the adaptation of the organism to environmental stimuli, in particular light and temperature.

[2] = test system: female patients having diffuse or androgenetic, non-epulotic alopecia; test: Patient questionnaire (success of therapy, side effects); assay type: in vivo, human
Experimental: Undesirable pharmaceutical side effects were determined by means of a patient questionnaire. At the end of the study, an additional termination questionnaire was filled in by the patients, in which they could express their views on the success of the therapy, on the chronological occurrence of side effects and on the administration form of the preparation.

[3] = test system: female patients having diffuse or androgenetic, non-epulotic alopecia; test: Trichograms (anagenic, telogenic, dystrophic hair rates) in randomized placebo-controlled double-blind study; assay type: in vivo, human; settings: for telogenic rate, frontal trichogram / anagenic rate, frontal trichogram / anagenic rate, occipital trichogram / telogenic rate, occipital trichogram: all patients
Experimental: The trial was carried out as a randomized, placebo-controlled double-blind study on 40 female patients having diffuse or androgenetic, non-epulotic alopecia, who, after clarification, declared themselves willing to participate in the investigation. […] The treatment period was 6 months. […] 40 women of 20 to 70 years of age with healthy skin and good general health and having androgenetic or diffuse alopecia were tested. Care was taken that none of the women were pregnant or lactating, there was no dermatological local therapy on the scalp and no epulotic alopecia was present. Furthermore, no hair-cosmetic measures were carried out during the study. […] For the investigation of the […] telogenic rates, trichograms were prepared. In this procedure, 5 days in each case after the last hair wash 30 to 50 hairs were obtained frontally approximately 2 cm from the forehead/hair boundary and laterally from the sagittal line in a standardized manner by epilation using a special […]. A 2nd epilation was taken occipitally 2 cm laterally of the protuberantia occipitalis. The trichograms were carried out before the beginning of the study, and after 3 and 6 months' treatment. The hair roots obtained were mounted on slides, analogously counted by means of a light microscope at 20-times magnification and the percentage ratios of the […], telogenic and dystrophic hairs were calculated. All the individual data from the trichogram investigations, the hair shaft measurements and the melatonin measurements were recorded in Microsoft Excel and mean values and standard deviations were calculated. The statistical analysis of the measured values at the various points in time in the two treatment groups was carried out by the SPSS statistics program.

hair follicle of goats = settings: goats treated over 14 days, vs untreated goats; cited from earlier work
[4] = test system: hair follicles of the cashmere goat; settings: cited from earlier work
[5] = test system: female patients having diffuse or androgenetic, non-epulotic alopecia; test: Hair shaft measurements (diameter, breaking force, breaking distance) in the same study; assay type: in vivo, human; settings: for power of resistance of hair: frontal hair
Description: The treatment period was 6 months. […] From the hair samples obtained for the trichogram, frontally and occipitally at least 10 hairs in each case were used for the hair shaft measurements. These samples were investigated before the beginning of the preparation application and after 3 and 6 months' treatment. For the measurement of the diameter and of the mechanical properties of the hair, 5 hairs from the frontal and occipital taking region of the trichograms were in each case used. For the measurement of the force which had to be used in order to break the hair, the hairs were first stretched, by means of a computer-controlled measuring and control unit at a constant force (Newton), to breaking point. In a manner analagous to the determination of the breaking force, it was possible to determine the stretching distance up to the breaking point by means of the measuring unit. The stretching distance was measured in mm.

[6] = drug group, end of 6-month study
[7] = drug group n=14, starting value
[8] = drug group, under topical treatment
[9] = patients treated with melatonin

SMILES: CC(C)(C)NC(=O)[C@H]1CC[C@H]2[C@@H]3CC[C@H]4NC(=O)C=C[C@]4(C)[C@H]3CC[C@]12C [finasteride]
- efficacy compared with placebo (postmenopausal women): did not show any superior efficacy compared with placebo
- cases with slight to marked improvement in the hair density (alopecia in men): 66%
- cases with stopping of the hair loss (alopecia in men): 80%

SMILES: COc1ccc2[nH]cc(CCNC(C)=O)c2c1 [melatonin, N-acetyl-5-methoxytryptamine]
- local or systemic side effects [1]: no local or systemic side effects
- patients in whom the hair loss had stopped [2, 6]: 23%
- patients in whom the hair loss had worsened [2, 6]: 8%
- patients stating that the hair loss had improved [2, 6]: 69%
- occurrence of tiredness compared with the placebo group ([2]; topical application to the scalp, 6 months): no increased occurrence of tiredness
- anagenic rate, occipital trichogram, androgenetic alopecia ([3]; drug group n=6, after treatment): 87.8%
- telogenic rate, occipital trichogram, androgenetic alopecia ([3]; drug group n=6, month 3): 18.3%
- telogenic rate, occipital trichogram, androgenetic alopecia ([3]; drug group n=6, month 6, p≦0.035 vs starting result): 10.8%
- anagenic rate, occipital trichogram, androgenetic alopecia ([3]; drug group n=6, starting value): 73.6%
- telogenic rate, occipital trichogram, androgenetic alopecia ([3]; drug group n=6, starting value): 26.5%
- telogenic rate, occipital trichogram, diffuse alopecia ([3]; drug group n=14, after treatment): 13.2%
- anagenic rate, occipital trichogram, diffuse alopecia ([3]; drug group n=14, after treatment, p=0,02 vs placebo for increase): 83.7%
- anagenic rate, occipital trichogram, diffuse alopecia [3, 7]: 77.4%
- telogenic rate, occipital trichogram, diffuse alopecia [3, 7]: 21.6%
- telogenic rate, frontal trichogram ([3]; drug group, after 3 months): 16.8%
- telogenic rate, frontal trichogram ([3]; drug group, after 6 months): 15.9%
- anagenic rate, frontal trichogram ([3]; drug group, after treatment with 0.1% melatonin spray (time not given; 6-month study)): 82.6%
- anagenic rate, occipital trichogram ([3]; drug group, month 3): 78.8%
- telogenic rate, occipital trichogram ([3]; drug group, month 3): 18.1%
- anagenic rate, occipital trichogram ([3]; drug group, month 6, p≦0.021 vs starting result): 85%
- telogenic rate, occipital trichogram ([3]; drug group, month 6, p≦0.048 vs month 3, p≦0.005 over 6 months): 12.5%
- anagenic rate, occipital trichogram ([3]; drug group, starting value): 76.3%
- telogenic rate, frontal trichogram ([3]; drug group, starting value): 18.9%
- telogenic rate, occipital trichogram ([3]; drug group, starting value (month 1)): 23.03% and 23%
- anagenic rate, frontal trichogram ([3]; drug group, starting value before therapy): 80.4%
- differences in frontal anagenic and telogenic rates after 3 and 6 months compared with starting values ([3]; drug group, frontal): not significant
- harmful actions of the preparation on the physiological hair root (dystrophic hair rate) ([3]; dystrophic hair always in the normal range): no harmful actions
- effect on hair follicles (histology of skin biopsies) (hair follicle of goats): induction of hair growth by changeover of the hair follicle from the telogenic phase to the proanagenic phase
- accumulation in the melatonin serum level (6 months' topical treatment): did not occur
- melatonin plasma level versus physiological night level (not exceeded) [8]: ≤ 250 pg/ml
- melatonin plasma level, individual peak values [8]: 180 pg/mL
- melatonin concentration giving greater growth of the hair shafts than lower dose and control ([4]; 24 hour interval): ≥ 150 mg/mL
- melatonin concentration with best growth rates and maximal total growth ([4]; after 120 hours): 300 ng/L
- patients with enlargement of the hair diameter, hair taken frontally ([5]; drug group, diagnosis androgenetic alopecia): 67%
- power of resistance of hair ([5]; after 6 months' melatonin treatment): 0.61 N
- power of resistance of hair ([5]; melatonin treatment, before treatment): 0.56 N
- patients with improvements of occipital hair parameters, group having diffuse alopecia ([5]; occipital hair, diffuse alopecia, melatonin): 86%
- patients with enlargement of the hair diameter, hair taken occipitally [5, 9]: 55%
- patients with increase in the stretching force, hair taken occipitally [5, 9]: 70%

From US20020183377A1 (priority 1999, published 2002)
